Measured values: patent publication US20240174596A1 (Northwestern University, priority 2021, published 2024)
Counter-ions that a name gives are not always drawn. Like-named read-outs stand apart in the source and are kept apart here.

Assays:
CYP 2D6 = CYP 2D6 (Homo sapiens, UniProt P10635); experiment: CYP inhibition 2D6; type: in vitro ADME
Ala-AT = Ala-AT (Sus scrofa, UniProt P13191); experiment: Inhibition of Ala-AT; type: biochemical, porcine; conditions: up to 10 mM
Procedure: All reagents for enzyme purification and assays were purchased from Sigma-Aldrich (St. Louis, MO, USA). […] All the enzyme assays for the inactivation, partition ratio, and dialysis experiment were recorded on a Synergy H1 hybrid multimode microplate reader (Biotek, USA) with transparent 96-well plates.
potassium phosphate at pH 7.4, 5.55 mM α-ketoglutarate, 1.11 mM NADH, 5.55 mM […], 5.55 units of malic dehydrogenase, and various concentrations of SS-1-148. […] The plate was shaken at room temperature for 1 min, and the absorbance was measured at 340 nm every 10 s for 90 min based on the conversion of NADH to NAD^+. The remaining Asp-AT activity percentage was calculated according to the corresponding concentrations. […]

[1] = Plasma protein binding, human; type: in vitro ADME
hOAT = molecular target: T1, hOAT (Homo sapiens, UniProt P04181); experiment: Fluoride ion release assay; type: biochemical
T1 construct: made in house; host or cells: E. coli BL21(DE3)
T1 sequence (P04181 26-439): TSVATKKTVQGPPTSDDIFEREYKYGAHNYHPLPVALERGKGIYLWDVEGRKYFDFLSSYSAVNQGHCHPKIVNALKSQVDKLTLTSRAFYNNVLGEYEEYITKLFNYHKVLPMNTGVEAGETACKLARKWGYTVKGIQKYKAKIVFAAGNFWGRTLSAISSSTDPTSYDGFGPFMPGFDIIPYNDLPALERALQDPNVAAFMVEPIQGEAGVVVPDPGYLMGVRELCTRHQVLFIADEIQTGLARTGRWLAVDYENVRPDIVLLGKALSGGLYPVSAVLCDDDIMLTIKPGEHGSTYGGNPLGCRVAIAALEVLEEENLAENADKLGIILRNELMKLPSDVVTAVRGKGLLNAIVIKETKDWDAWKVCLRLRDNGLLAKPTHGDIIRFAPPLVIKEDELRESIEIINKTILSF
Procedure: The fluoride ion release assay was conducted using previous protocols.^10 The final concentration of enzyme in the sample was determined via BCA protein assay kit (Pierce, cat: 23225). A calibration curve of voltage (V, mV) was generated from varying concentrations of NaF (F, μM). For accurate detection of fluoride ion concentration, 10 μM of fluoride ion was added to each control and sample The number of fluoride ions released per active site was calculated by the ratio of the fluoride ion release concentration and enzyme concentration.

Brain/plasma PK studies = type: in vivo; conditions: brain, read-out: B/P ratio
[2] = Liver microsomal stability, human; type: in vitro ADME
CYP 3A4 = CYP 3A4 (Homo sapiens, UniProt P08684); experiment: CYP inhibition 3A4; type: in vitro ADME
CYP 3A4, sequence (P08684 whole entry): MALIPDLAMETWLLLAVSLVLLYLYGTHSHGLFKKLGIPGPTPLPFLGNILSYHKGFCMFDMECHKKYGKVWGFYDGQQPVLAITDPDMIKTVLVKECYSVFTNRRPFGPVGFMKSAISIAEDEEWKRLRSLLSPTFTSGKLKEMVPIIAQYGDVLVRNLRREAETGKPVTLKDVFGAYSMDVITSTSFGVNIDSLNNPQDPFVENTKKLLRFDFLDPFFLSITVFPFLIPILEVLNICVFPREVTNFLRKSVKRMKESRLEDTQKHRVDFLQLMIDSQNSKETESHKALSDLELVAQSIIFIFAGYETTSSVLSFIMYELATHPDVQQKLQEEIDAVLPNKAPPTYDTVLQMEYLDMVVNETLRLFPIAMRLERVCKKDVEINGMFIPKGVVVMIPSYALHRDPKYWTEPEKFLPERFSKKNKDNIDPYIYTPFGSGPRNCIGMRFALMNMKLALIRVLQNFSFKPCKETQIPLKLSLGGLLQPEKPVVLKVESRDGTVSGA

Aqueous solubility = type: physicochemical; conditions: aqueous medium (not further specified); HCl salt
CYP 2C19 = CYP 2C19 (Homo sapiens, UniProt P33261); experiment: CYP inhibition 2C19; type: in vitro ADME
CYP 2C19, sequence (P33261 whole entry): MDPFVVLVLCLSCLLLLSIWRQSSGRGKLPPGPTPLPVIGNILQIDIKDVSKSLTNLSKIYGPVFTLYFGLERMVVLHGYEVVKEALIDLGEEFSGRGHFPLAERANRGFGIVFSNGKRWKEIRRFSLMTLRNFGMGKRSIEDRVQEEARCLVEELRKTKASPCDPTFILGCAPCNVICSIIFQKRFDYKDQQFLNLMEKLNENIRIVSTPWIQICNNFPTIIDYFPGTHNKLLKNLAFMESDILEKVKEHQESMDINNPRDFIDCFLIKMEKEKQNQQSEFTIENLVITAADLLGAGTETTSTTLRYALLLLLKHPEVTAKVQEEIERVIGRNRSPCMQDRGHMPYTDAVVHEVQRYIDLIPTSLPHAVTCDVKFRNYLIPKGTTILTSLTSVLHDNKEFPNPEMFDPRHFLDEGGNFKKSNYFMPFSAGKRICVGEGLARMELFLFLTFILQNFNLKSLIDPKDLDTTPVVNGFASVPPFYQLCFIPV

CYP 1A2 = molecular target: T2, CYP 1A2 (Homo sapiens, UniProt P05177); experiment: CYP inhibition 1A2; type: in vitro ADME
T2 sequence (P05177 1-516): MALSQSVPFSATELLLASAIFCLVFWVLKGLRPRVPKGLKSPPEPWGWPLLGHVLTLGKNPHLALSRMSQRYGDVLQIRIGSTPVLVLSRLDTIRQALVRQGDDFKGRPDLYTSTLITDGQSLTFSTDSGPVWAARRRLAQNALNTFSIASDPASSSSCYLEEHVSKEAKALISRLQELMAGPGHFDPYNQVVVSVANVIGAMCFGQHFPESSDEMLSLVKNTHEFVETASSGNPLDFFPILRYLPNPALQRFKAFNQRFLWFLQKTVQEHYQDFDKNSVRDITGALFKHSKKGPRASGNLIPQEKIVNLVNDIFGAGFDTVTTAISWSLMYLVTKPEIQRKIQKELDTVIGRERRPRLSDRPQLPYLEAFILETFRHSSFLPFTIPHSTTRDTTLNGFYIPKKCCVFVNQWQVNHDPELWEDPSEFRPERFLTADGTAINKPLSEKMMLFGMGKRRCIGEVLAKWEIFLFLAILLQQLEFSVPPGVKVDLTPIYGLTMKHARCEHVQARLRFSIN

Ala-AT, sequence (P13191 whole entry): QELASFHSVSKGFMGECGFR
CYP 2D6, sequence (P10635 whole entry): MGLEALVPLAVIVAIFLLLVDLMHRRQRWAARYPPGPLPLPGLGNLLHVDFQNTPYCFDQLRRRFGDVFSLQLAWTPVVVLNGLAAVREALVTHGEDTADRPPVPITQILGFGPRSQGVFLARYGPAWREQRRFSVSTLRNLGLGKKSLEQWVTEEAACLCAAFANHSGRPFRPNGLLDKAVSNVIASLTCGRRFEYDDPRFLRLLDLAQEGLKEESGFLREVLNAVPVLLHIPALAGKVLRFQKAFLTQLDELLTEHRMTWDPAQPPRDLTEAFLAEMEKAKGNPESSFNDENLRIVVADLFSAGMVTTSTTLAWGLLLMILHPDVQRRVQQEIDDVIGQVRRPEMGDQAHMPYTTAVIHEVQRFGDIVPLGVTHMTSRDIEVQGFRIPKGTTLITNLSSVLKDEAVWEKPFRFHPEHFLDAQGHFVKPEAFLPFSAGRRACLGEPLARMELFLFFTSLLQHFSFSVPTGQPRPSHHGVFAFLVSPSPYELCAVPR

## N[C@H]1C=C(C(=O)O)CC1(F)F [SS-1-148, (S)-3-Amino-4,4-difluorocyclopent-1-enecarboxylic acid hydrochloric acid salt]
CYP 2D6
  IC50: > 100 µM
Ala-AT
  inhibition on Ala-AT: did not show noticeable inhibition
[1]
  fraction unbound: 1
hOAT
  fluoride ion released per inactivation event: 33.9±0.8 equivalents
hOAT; without α-KG, triplicate, mean with standard deviation
  Fluoride ion release: 33.9 ± 0.8
Brain/plasma PK studies; IV (5 mg/kg)
  Kp at 0.25 h: 0.2
Brain/plasma PK studies; PO (30 mg/kg)
  Kp at 0.25 h: 0.14
Brain/plasma PK studies; PO (30 mg/kg), 2 h
  Kp at 2 h: 0.26
[2]
  Liver microsomal stability (t1/2) Human: N/C
CYP 3A4
  IC50: > 100 µM
Aqueous solubility
  solubility: > 50 mM
CYP 2C19
  IC50: > 100 µM
CYP 1A2
  IC50: > 100 µM
